Patent US20260015337A1 (Trawsfynydd Therapeutics, Inc., priority 2022, published 2026)

Target: 3CL Protease (Severe acute respiratory syndrome coronavirus 2, UniProt P0DTD1)
Test: 3CL Protease enzymatic activity assay (BPS Bioscience Assay Kit #78043-1, fluorescence)
Assay type: biochemical, SARS-CoV-2
Conditions: Table A; 30 min preincubation, 40 μM substrate, 4 hours at room temperature; read-out: IC50, nM (3CL Protease enzymatic activity)
Procedure: For determination of 3CL Protease enzymatic activity was used Assay Kit of BPS Bioscience, San Diego, CA (Catalog #78043-1).
All samples and controls should be tested in duplicate. • 1) Just before use, dilute 0.5 M DTT 500 times into the 3CL Protease Assay Buffer to obtain a DTT concentration of 1 mM. For example, add 10 μl of 0.5 M DTT to 5 ml of assay buffer. Prepare enough DTT-containing buffer as required for the assay. Store the remaining assay buffer at −20° C. • 2) Thaw the 3CL Protease on ice. Briefly spin the tube containing the enzyme to recover the full content of the tube. Note: 3CL Protease enzyme is sensitive to freeze/thaw cycles. […] Note: The exact concentration and volume of enzyme is lot-specific and will be indicated on the tube. Calculate required dilution from the information in the tube. It may be desirable to dilute the enzyme serially to avoid using large amounts of protease assay buffer for the dilution. • 4) Add 30 μl of diluted 3CL Protease to the wells designated as “Positive Control,” “Inhibitor Control,” and “Test Inhibitor.” Add 30 μl of Assay Buffer (containing 1 mM DTT) to the “Blank” wells. • 5) Dilute the 50 μg GC376 in 200 μl of Assay Buffer to obtain a 500 μM solution. Add 10 μl of GC376 (500 μM) to the wells labeled “Inhibitor Control”. Aliquot and store the remaining solution at −80° C. • 6) Prepare the Test Inhibitor. The final concentration of DMSO in the assay should not exceed 1%. If the Test Inhibitor is dissolved in DMSO, make a 100-fold higher concentration of the compound than the highest desired concentration. Then make a 20-fold dilution in 1× Assay Buffer (containing DTT). At this step the compound concentration is 5-fold higher than the final concentration. If the test inhibitor is dissolved in water, make a 5-fold higher concentration of the test compound than the final desired concentration in the Assay buffer (containing DTT). Add 10 μl of Test Inhibitor to each well designated “Test Inhibitor”. • 7) Diluent Solution (no inhibitor): add 10 μl of assay buffer (if the test compound is water soluble and was diluted in assay buffer) or 10 μl of 5% DMSO diluted in assay buffer (if DMSO was used to dissolve the test inhibitor) to “Blank” and “Positive Control” wells.
• 8) Preincubate for 30 min at room temperature with slow shaking. • 9) Dilute the 25 μl of 3CL Protease substrate (10 mM) in 1.25 ml of the Assay Buffer containing DTT, to make a […] solution. The final concentration of the 3CL Protease substrate in a 50 μl reaction is 40 μM. • 10) Start the reaction by adding 10 μl of the substrate solution to all the wells. Seal the plate with the plate sealer and incubate for 4 hours at room temperature with slow shaking. • 11) Measure the fluorescence intensity in a microtiter plate-reader fluorometer (Tecan Spark Cyto) capable of excitation at a wavelength 360 nm and detection of emission at a wavelength 460 nm. The fluorescence intensity can also be measured kinetically. The “Blank” value is subtracted from all other values. • The % inhibition was then used to calculate the IC50 values.

First: CC(C)(C)[C@H](NC(=O)C(F)(F)F)C(=O)N1C[C@H]2C([C@H]1C(=O)NC(C#N)Cc1cc3cc(Cl)ccc3[nH]c1=O)C2(C)C (stereo in doubt) [Compound 104, (1R,2S,5S)—N-(2-(6-Chloro-2-oxo-1,2-dihydroquinolin-3-yl)-1-cyanoethyl)-3-((S)-3,3-dimethyl-2-(2,2,2-trifluoroacetamido)butanoyl)-6,6-dimethyl-3-azabicyclo[3.1.0]hexane-2-carboxamide]
Second: CC(C)(C)[C@H](NC(=O)C(F)(F)F)C(=O)N1C[C@H]2[C@@H]([C@H]1C(=O)NC(C#N)Cc1cc3ccccc3[nH]c1=O)C2(C)C (stereo partly drawn) [Compound 182, (1R,2S,5S)-N-[1-cyano-2-(2-oxo-1H-quinolin-3-yl)ethyl]-3-[(2S)-3,3-dimethyl-2-[(2,2,2-trifluoroacetyl)amino]butanoyl]-6,6-dimethyl-3-azabicyclo[3.1.0]hexane-2-carboxamide]
The IC50 of the first is higher: 50 to 100 nM for the first, less than 50 nM for the second.

Compared with CC(C)(C)[C@H](NS(C)(=O)=O)C(=O)N1C[C@H]2C([C@H]1C(=O)NC(C#N)Cc1cc3c([nH]c1=O)CCC(F)(F)C3)C2(C)C (stereo in doubt) [Compound 126, (1R,2S,5S)—N-(1-Cyano-2-(6,6-difluoro-2-oxo-1,2,5,6,7,8-hexahydroquinolin-3-yl)ethyl)-3-((S)-3,3-dimethyl-2-(methylsulfonamido)butanoyl)-6,6-dimethyl-3-azabicyclo[3.1.0]hexane-2-carboxamide], CC(C)(C)[C@H](NS(C)(=O)=O)C(=O)N1C[C@H]2[C@@H]([C@H]1C(=O)N[C@H](C#N)Cc1cc3cnccc3[nH]c1=O)C2(C)C [Compound 188, (1R,2S,5S)—N—((S)-1-Cyano-2-(2-oxo-1,2-dihydro-1,6-naphthyridin-3-yl)ethyl)-3-((S)-3,3-dimethyl-2-(methylsulfonamido)butanoyl)-6,6-dimethyl-3-azabicyclo[3.1.0]hexane-2-carboxamide] is lower in IC50: 100 to 250 nM for the first, less than 50 nM for the second. The second is the more potent here.

Cc1ccc2[nH]c(=O)c(C[C@@H](C#N)NC(=O)[C@@H]3C4[C@H](CN3C(=O)[C@@H](NS(C)(=O)=O)C(C)(C)C)C4(C)C)cc2c1 (stereo in doubt) [Compound 147, (1R,2S,5S)—N-[(1S)-1-cyano-2-(6-methyl-2-oxo-1H-quinolin-3-yl)ethyl]-3-[(2S)-2-(methanesulfonamido)-3,3-dimethyl-butanoyl]-6,6-dimethyl-3-azabicyclo[3.1.0]hexane-2-carboxamide] and CC(C)(C)[C@H](NS(C)(=O)=O)C(=O)N1C[C@H]2[C@H]([C@H]1C(=O)NC(C#N)Cc1cc3cnccc3[nH]c1=O)C2(C)C (stereo partly drawn) [Compound 130, (1S,2S,5S)-N-[1-cyano-2-(2-oxo-1H-1,6-naphthyridin-3-yl)ethyl]-3-[(2S)-2-(methanesulfonamido)-3,3-dimethyl-butanoyl]-6,6-dimethyl-3-azabicyclo[3.1.0]hexane-2-carboxamide] cannot be ordered by IC50: less than 50 nM for the first, less than 50 nM for the second.

First: CC(C)(C)[C@H](NC(=O)C(F)(F)F)C(=O)N1C[C@H]2[C@@H]([C@H]1C(=O)N[C@H](C#N)Cc1cc3cnccc3[nH]c1=O)C2(C)C [Compound 174, (1R,2S,5S)—N—((S)-1-Cyano-2-(2-oxo-1,2-dihydro-1,6-naphthyridin-3-yl)ethyl)-3-((S)-3,3-dimethyl-2-(2,2,2-trifluoroacetamido)butanoyl)-6,6-dimethyl-3-azabicyclo[3.1.0]hexane-2-carboxamide]
Second: Cc1cc2cc(CC(C#N)NC(=O)[C@@H]3C4[C@H](CN3C(=O)[C@@H](NC(=O)C(F)(F)F)C(C)(C)C)C4(C)C)c(=O)[nH]c2cc1C (stereo in doubt) [Compound 145, (1R,2S,5S)—N-(1-cyano-2-(6,7-dimethyl-2-oxo-1,2-dihydroquinolin-3-yl)ethyl)-3-((S)-3,3-dimethyl-2-(2,2,2-trifluoroacetamido)butanoyl)-6,6-dimethyl-3-azabicyclo[3.1.0]hexane-2-carboxamide]
The IC50 of the first is lower: less than 50 nM for the first, 50 to 100 nM for the second. The first is the more potent here.

First: Cc1ccc2[nH]c(=O)c(C[C@@H](C#N)NC(=O)[C@@H]3C4[C@H](CN3C(=O)[C@@H](Nc3ccnc(C)n3)C(C)(C)C)C4(C)C)cc2c1 (stereo in doubt) [Compound 159, (1R,2S,5S)—N—((S)-1-Cyano-2-(6-methyl-2-oxo-1,2-dihydroquinolin-3-yl)ethyl)-3-((S)-3,3-dimethyl-2-((2-methylpyrimidin-4-yl)amino)butanoyl)-6,6-dimethyl-3-azabicyclo[3.1.0]hexane-2-carboxamide]
Second: Cc1ccc2[nH]c(=O)c(CC(C#N)NC(=O)[C@@H]3C4[C@H](CN3C(=O)[C@@H](Nc3ncc(C)s3)C(C)(C)C)C4(C)C)cc2c1 (stereo in doubt) [Compound 152, (1R,2S,5S)—N-(1-Cyano-2-(6-methyl-2-oxo-1,2-dihydroquinolin-3-yl)ethyl)-3-((S)-3,3-dimethyl-2-((5-methylthiazol-2-yl)amino)butanoyl)-6,6-dimethyl-3-azabicyclo[3.1.0]hexane-2-carboxamide]
The IC50 of the first is higher: no less than 1000 nM for the first, 100 to 250 nM for the second.

First: Cc1ccc2[nH]c(=O)c(C[C@@H](C#N)NC(=O)[C@H](Cc3ccccc3)N(C)C(=O)[C@@H](NC(=O)C(F)(F)F)C(C)(C)C)cc2c1 [Compound 206, (2S)—N-[(1S)-1-benzyl-2-[[(1S)-1-cyano-2-(6-methyl-2-oxo-1H-quinolin-3-yl)ethyl]amino]-2-oxo-ethyl]-N,3,3-trimethyl-2-[(2,2,2-trifluoroacetyl)amino]butanamide]
Second: Cc1ccc2[nH]c(=O)c(CC(C#N)NC(=O)[C@H](Cc3ccccc3)NC(=O)[C@@H](NS(=O)(=O)CC(F)(F)F)C(C)(C)C)cc2c1 (stereo partly drawn) [Compound 164, (2S)—N-((2S)-1-((1-Cyano-2-(6-methyl-2-oxo-1,2-dihydroquinolin-3-yl)ethyl)amino)-1-oxo-3-phenylpropan-2-yl)-3,3-dimethyl-2-((2,2,2-trifluoroethyl)sulfonamido)butanamide]
The IC50 of the first is higher: no less than 1000 nM for the first, 100 to 250 nM for the second.

COc1cccc2oc(C(=O)N3C[C@H]4[C@@H]([C@H]3C(=O)N[C@H](C#N)Cc3cc5cc(C)ccc5[nH]c3=O)C4(C)C)cc12 [Compound 196, (1R,2S,5S)—N—((S)-1-Cyano-2-(6-methyl-2-oxo-1,2-dihydroquinolin-3-yl)ethyl)-3-(4-methoxybenzofuran-2-carbonyl)-6,6-dimethyl-3-azabicyclo[3.1.0]hexane-2-carboxamide] and Cc1ccc2[nH]c(=O)c(C[C@@H](C#N)NC(=O)C3C[C@H]4OCC[C@H]4N3C(=O)[C@@H](NC(=O)OCc3ccccc3)C(C)(C)C)cc2c1 (stereo partly drawn) [Compound 197, Benzyl ((2S)-1-((3aR,6aR)-5-(((S)-1-cyano-2-(6-methyl-2-oxo-1,2-dihydroquinolin-3-yl)ethyl)carbamoyl)hexahydro-4H-furo[3,2-b]pyrrol-4-yl)-3,3-dimethyl-1-oxobutan-2-yl)carbamate] cannot be ordered by IC50: no less than 1000 nM for the first, no less than 1000 nM for the second.

First: Cc1ccc2[nH]c(=O)c(C[C@@H](C#N)N(C)C(=O)[C@@H]3[C@@H]4[C@H](CN3C(=O)[C@@H](NC(=O)C(F)(F)F)C(C)(C)C)C4(C)C)cc2c1 [Compound 183, (1R,2S,5S)-N-[(1S)-1-cyano-2-(6-methyl-2-oxo-1H-quinolin-3-yl)ethyl]-3-[(2S)-3,3-dimethyl-2-[(2,2,2-trifluoroacetyl)amino]butanoyl]-N,6,6-trimethyl-3-azabicyclo[3.1.0]hexane-2-carboxamide]
Second: CC(C)(C)[C@H](NC(=O)C(F)(F)F)C(=O)N1C[C@H]2C([C@H]1C(=O)NC(C#N)Cc1cc3c([nH]c1=O)CCOC3)C2(C)C (stereo in doubt) [Compound 123, (1R,2S,5S)—N-(1-Cyano-2-(2-oxo-1,5,7,8-tetrahydro-2H-pyrano[4,3-b]pyridine-3-yl)ethyl)-3-((S)-3,3-dimethyl-2-(2,2,2-trifluoroacetamido)butanoyl)-6,6-dimethyl-3-azabicyclo[3.1.0]hexane-2-carboxamide]
The IC50 of the first is higher: no less than 1000 nM for the first, 100 to 250 nM for the second. The second is the more potent here.

Same assay, conditions: Table B; comparison with known compound K; read-out: IC50, nM (3CL Protease enzymatic activity, comparative data)

In order of falling IC50:
1. CC(C)(C)[C@H](NC(=O)C(F)(F)F)C(=O)N1C[C@H]2C([C@H]1C(=O)NC(C#N)Cc1cc3c([nH]c1=O)CCOC3)C2(C)C (stereo in doubt) [Compound 123, (1R,2S,5S)—N-(1-Cyano-2-(2-oxo-1,5,7,8-tetrahydro-2H-pyrano[4,3-b]pyridine-3-yl)ethyl)-3-((S)-3,3-dimethyl-2-(2,2,2-trifluoroacetamido)butanoyl)-6,6-dimethyl-3-azabicyclo[3.1.0]hexane-2-carboxamide]  180 nM
2. CC(C)(C)[C@H](NC(=O)C(F)(F)F)C(=O)N1C[C@H]2C([C@H]1C(=O)NC(C#N)Cc1cc3cc(Cl)ccc3[nH]c1=O)C2(C)C (stereo in doubt) [Compound 104, (1R,2S,5S)—N-(2-(6-Chloro-2-oxo-1,2-dihydroquinolin-3-yl)-1-cyanoethyl)-3-((S)-3,3-dimethyl-2-(2,2,2-trifluoroacetamido)butanoyl)-6,6-dimethyl-3-azabicyclo[3.1.0]hexane-2-carboxamide]  89 nM
